Calls of active or inactive are those of the source. No cut-off for these calls is given here. Where a SMILES comes first, the peptide text is derived from it. [ ]: non-standard residue; d: D form. The star is where a group is joined. Dolaproine = CO[C@@H]([C@@H]1CCCN1)[C@@H](C)C(=O)O; Dil = CC[C@H](C)[C@H](NC)[C@@H](CC(=O)O)OC; X2 = C[C@@H](N*)[C@@H](O)c1ccccc1; NMeV = CN[C@H](C(=O)O)C(C)C

This passage reports CC50 and Activity results from ChEMBL document CHEMBL5034037, “Synthesis, Characterization, and Preclinical Evaluation of a Small-Molecule Prostate-Specific Membrane Antigen-Targeted Monomethyl Auristatin E Conjugate” (J Med Chem, 2021).

The test system of series [1] is CWR22R. Put plainly: Cytotoxicity against human 22Rv1 cells expressing PMSA measured using MTT assay. The class given is functional. In general terms: Tetrazolium dyes change colour on reduction, which living cells bring about.
In series [2] the test system is PC-3. Put plainly: Cytotoxicity against human PC-3 cells not expressing PMSA measured using MTT assay. It is filed as functional.
For series [3], the system named is CWR22R. In words: Induction of intracellular reactive oxygen species production in human 22Rv1 cells incubated for 1 hr measured at CC50 concentration by amperometric method. It is filed as functional, cell-based.
The subject of series [4] is PC-3. In words: Induction of intracellular reactive oxygen species production in human PC-3 cells incubated for 1 hr measured at CC50 concentration by amperometric method. The class given is functional, cell-based.
Series [5] can be described thus: Acute toxicity in iv dosed ICR male mouse assessed as maximum non-lethal dose. The class given is organism-based. The settings on record: in vivo.
Series [6] is described as follows: Acute toxicity in iv dosed Wistar male rat assessed as maximum non-lethal dose. It is filed as organism-based. The following applies: in vivo.
The nature of series [7]: Acute toxicity in Wistar rat assessed as decrease in motor activity. The following applies: in vivo.
A short description of series [8]: Acute toxicity in Wistar rat assessed as damage in liver at 30 mg/kg, iv. The class given is organism-based. The settings on record: in vivo.
The nature of series [9]: Acute toxicity in Wistar rat assessed as decrease in porphyrin release from eye mucous membrane at 30 mg/kg, iv. The following applies: in vivo. The class given is organism-based.
Series [10] can be described thus: Acute toxicity in Wistar rat assessed as decrease in porphyrin release from nose mucous membrane at 30 mg/kg, iv. It is filed as organism-based. The settings on record: in vivo.

Usually CC50 stands for the concentration that lowers cell viability or growth by half. A lower CC50 goes with greater toxicity to the cells. Turning to `CC[C@H](C)[C@@H]([C@@H](CC(=O)N1CCC[C@H]1[C@H](OC)[C@@H](C)C(=O)N[C@H](C)[C@@H](O)c1ccccc1)OC)N(C)C(=O)[C@@H](NC(=O)[C@@H](NC)C(C)C)C(C)C` (H-[NMeV]V[Dil][Dolaproine]-X2), the CC50 with CWR22R [1] is 1.44 nM; in the series with PC-3 [2], 0.97 nM. The result in the series with CWR22R [3] and with PC-3 [4] was Active. The Activity in [5] was 0.1 mg/kg; in series [6], 0.29 mg/kg; in series [7] it was “Toxic”; in series [8] it was “Toxic”; in series [9] it was “Toxic”; in [10], “Toxic”.

For the compound `CC(=O)O[C@@]12CO[C@@H]1C[C@H](O)[C@@]1(C)C(=O)[C@H](O)C3=C(C)[C@@H](OC(=O)[C@H](O)[C@@H](NC(=O)OC(C)(C)C)c4ccccc4)C[C@@](O)([C@@H](OC(=O)c4ccccc4)[C@H]21)C3(C)C` [DOCETAXEL ANHYDROUS], the half-maximal cytotoxic concentration (CC50) with CWR22R [1] amounted to 3.3 nM; with PC-3 [2] it was 6.7 nM.
